Data: patent US20220280594A1, “APPLICATION OF POLYPEPTIDE OR DERIVATIVE THEREOF” (CHENGDU HUITAI BIOMEDICINE CO., LTD., priority 2019, published 2022)
Ends that are not written are not given here. PEG = not defined here

Assays:
Format in all cases: cell-based
[1] = system: human lung squamous carcinoma cells (NCI-H226); assay: scratch assay, migration of NCI-H226 cells; conditions: NCI-H226, 10 μM, 48 hours; control group 65.31 ± 3.19
Procedure, shortened: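 A straight scratch was made in confluent NCI-H226 monolayers (1-2×10^5 cells/well). Cells were then kept 48 h in 2% FBS medium with 10 μM polypeptide or PBS control, triplicate wells. Migration rate (%) = (original − current scratch width)/original width ×100, from imaged scratch widths.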

[2] = system: human pancreatic cancer cells (PANC-1); assay: transwell migration assay, PANC-1 cells; conditions: PANC-1 transwell migration, 10 μM, 24 hours; control group 360 ± 60
Procedure, shortened: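 Serum-free PANC-1 cells placed in the upper transwell chamber with complete medium below; after 4-5 h, peptide added to the upper chamber at a final 10 μM. Migration ran 24 h at 37 °C; cells on the membrane underside were methanol-fixed, crystal violet-stained and counted by microscopy.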

[3] = system: human liver adenocarcinoma cells (SK-HEP-1); assay: transwell invasion assay, SK-HEP-1 cells; conditions: SK-HEP-1 transwell invasion, 10 μM, 24 hours; control group 767 ± 91
Procedure, shortened: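 Serum-free SK-HEP-1 cells were seeded in matrigel-coated upper chambers over complete medium. After 4-5 h, peptide was added to the upper chamber at 10 μM final. Following 24 h at 37° C., invaded cells were fixed, crystal violet-stained, imaged and counted.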

[4] = system: human melanoma cells (A375); assay: scratch assay, migration of A375 cells; conditions: A375, 10 μM, 48 hours; control group 44.03 ± 6.21
Procedure, shortened: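 Monolayers scratched, washed with PBS and cultured 48 hours in 2% FBS medium with polypeptides N1-N54 at 10 μM or PBS control, three wells per group. Migration rate (%) = (original − current scratch width)/original width×100, from imaged scratch widths.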

[5] = system: human oral epidermoid carcinoma KB cells; assay: scratch assay, migration of KB cells; conditions: 10 μM, 48 hours, control group 54.03 ± 4.21
Procedure, shortened: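 Monolayers of KB cells were scratched, washed with PBS, then cultured 48 hours in 2% FBS medium containing test polypeptide (10 μM) or PBS control, in triplicate wells. From images, migration rate (%) = (original − current scratch width)/original width × 100.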

[6] = system: human pharyngeal squamous-cell carcinoma cells (Fadu); assay: scratch assay, migration of Fadu cells; conditions: 10 μM, 48 hours, control group 28.76 ± 4.08
Procedure, shortened: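 Confluent Fadu monolayers scratched, then cultured 48 h with 10 μM polypeptide in medium with 2% FBS; PBS control, triplicate wells. Migration rate (%) = (original − current scratch width)/original width × 100, from ≥3 images per well.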

[7] = system: human colon cancer cells (HCT-116); assay: scratch assay, migration of HCT-116 cells; conditions: HCT-116, 10 μM, 48 hours; control group 47.78 ± 6.07
Procedure, shortened: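 Confluent HCT-116 monolayers were scratched, washed and cultured 48 h in 2% FBS medium with peptide at 10 μM versus PBS control, triplicate wells. Migration rate (%) = (original minus current scratch width)/original width × 100, from at least 3 images per well.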

[8] = system: human thyroid cancer cells (FRO); assay: scratch assay, migration of FRO cells; conditions: 10 μM, 48 hours, control group 60.34 ± 8.32
Procedure, shortened: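 FRO monolayers were scratched, washed, and cultured 48 h in 2% FBS medium with polypeptide derivatives at 10 μM or PBS control, three wells per group. Migration rate (%) = (original − current scratch width)/original width × 100, measured from images.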

Substance | Migration rate (%) (mean ± SD, P) [1] | Number of cells (mean ± SD, P), migrated cells [2] | Number of cells (mean ± SD, P), invaded cells [3] | Migration rate (%) (mean ± SD, P) [4] | Migration rate (%) (mean ± SD, P) [5] | Migration rate (%) (mean ± SD, P) [6] | Migration rate (%) (mean ± SD, P) [7] | Migration rate (%) (mean ± SD, P) [8]
N52: SEQ ID NO: 1 with N18R, addition of two amino acids and PEG modification at the carboxyl terminal (YRVRFLAKENVTQDAEDRCT-{PEG}; reading uncertain) | 27.19 ± 4.67,*** % | 153 ± 16,*** | 132 ± 29,**** | 19.57 ± 2.21,** % | 9.57 ± 1.61,*** % | 7.76 ± 2.08,*** % | 18.71 ± 3.59,** % | 10.86 ± 3.90,*** %
N53: SEQ ID NO: 1 with A15R, one amino acid added at each terminal, PEG modification at the carboxyl terminal (FYRVRFLAKENVTQDREDNC-{PEG}; reading uncertain) | 41.05 ± 4.60,** % | 131 ± 8,*** | 143 ± 19,**** | 18.83 ± 4.71,** % | 8.83 ± 1.75,*** % | 13.8 ± 3.05,** % | 14.42 ± 3.21,*** % | 20.32 ± 4.58,** %
N54: SEQ ID NO: 1 with A7R, addition of two amino acids and PEG modification at the carboxyl terminal (YRVRFLRKENVTQDAEDNTC-{PEG}; reading uncertain) | 24.66 ± 5.13,*** % | 128 ± 19,*** | 151 ± 28,**** | 16.91 ± 3.21,** % | 6.91 ± 3.44,*** % | 15.88 ± 5.38,* % | 26.50 ± 3.99,** % | 8.26 ± 3.47%
